The source of these data is US20240408112A1, “METHOD FOR PREVENTING OR TREATING PULMONARY ARTERIAL HYPERTENSION BY USING 7-DEHYDROCHOLESTEROLS OR SALTS, OXIDES, METABOLITES, OR DERIVATIVES THEREOF” (EXCELSIOR PHARMATECH LABS., priority 2023, published 2024).

Data set [1] relates to human pulmonary artery endothelial cells (hPAEC). Briefly: BrdU cell proliferation assay, 0.1% FBS, 100 pM TGF-β, hPAEC. As to conditions: Homo sapiens, Endothelial cell. Type of data set: cell-based. As to the method: (§1) BrdU (5-bromo-2-deoxyuridine) cell proliferation assay (BrdU assay)
(§2) A 48-well plate was used, and 1.5×10^4 cells were implanted in each well. After 24 hours, the medium was changed to serum-free culture medium and synchronized for 24 hours. A 2-fold concentration of the compound in serum-free culture medium is prepared and the cells were pretreated for 1 hour. Then, the same volume of culture medium containing 20% fetal bovine serum (FBS) was added to dilute the compound. The final concentration was 10% FBS culture medium and 1 times the concentration of the compound. In the experimental group that added TGF-β, the same volume of TGF-β culture medium containing 10 ng/mL was added, with a final concentration of 5 ng/mL TGF-β and 1 times the concentration of the compound, and in the experimental group added with TGF-β, the entire process was conducted in culture medium containing 0.1% serum. Then, BrdU reagent was added about 6 hours later, and the cells were collected the next day for enzyme-linked immunosorbent assay (ELISA) analysis, the compound treatment time was about 24 hours, and the BrdU treatment time was about 18 hours.
(§3) Five compounds to be tested were screened by cell survival assay (MTT assay) and BrdU (5-bromo-2-deoxyuridine) cell proliferation assay, and the information of these compounds was listed in Table 1 below. Tables 2 and 3 respectively listed the growth inhibitions of on human pulmonary artery endothelial cells (hPAEC), human pulmonary artery smooth muscle cells (hPASMC), normal rat pulmonary artery smooth muscle cells (rPASMC, as the control group, represented by “CON”), and rat pulmonary artery smooth muscle cells (represented by “MCT”), by the five compounds to be tested under the conditions of 10% FBS, 0.1% FBS and 100 pM TGF-β.

Data set [2] has the same test system. Put plainly: BrdU cell proliferation assay, 10% FBS, hPAEC. The format is cell-based. The note with it: Homo sapiens, Endothelial cell, read-out: EC50 (concentration for 50% of maximal effect). As to the method:
as §1, §2, §3

For data set [3], the system named is PAH rat pulmonary artery smooth muscle cells (rPASMC MCT). Briefly: BrdU cell proliferation assay, 0.1% FBS, 100 pM TGF-β, rPASMC MCT. Type of data set: cell-based. As to conditions: Rattus norvegicus. The protocol: as §1, §2, §3
Data set [4] has the same test system. Briefly: BrdU cell proliferation assay, 10% FBS, rPASMC MCT. The format is cell-based. As to conditions: Rattus norvegicus, read-out: EC50 (concentration for 50% of maximal effect). The protocol: as §1, §2, §3
For data set [5], the system named is human pulmonary artery smooth muscle cells (hPASMC). Briefly: BrdU cell proliferation assay, 0.1% FBS, 100 pM TGF-β, hPASMC. As to conditions: Homo sapiens. Type of data set: cell-based. The protocol: as §1, §2, §3
Data set [6] has as its system monocrotaline induced pulmonary arterial hypertension rat. Briefly: Monocrotaline-induced pulmonary arterial hypertension rat model, Example 3 (7-DHC vs macitentan). The note with it: 30 mg/kg oral. Type of data set: in vivo. An excerpt:
(§4) Pulmonary arterial hypertension animal experimental model
(§5) The present disclosure utilizes injection of monocrotaline to induce symptoms of pulmonary arterial hypertension in rats to establish a pulmonary arterial hypertension animal experimental model suitable for screening test drugs.
(§6) The diagnostic method of clinical pulmonary arterial hypertension standards is right heart catheterization, which is defined as mean pulmonary arterial pressure (mPAP) greater than or equal to 20 mmHg. The diagnostic criteria for pulmonary arterial hypertension, in addition to an increase in mean pulmonary arterial pressure, need to be combined with pulmonary vascular resistance (PVR) greater than 3 Wood unit. The right ventricle pressure (RVP) and systemic mean blood pressure (mbp) in rats with pulmonary arterial hypertension were measured by Millar Model PCU200 pressure system, and the heart rate (HR) was also monitored at the same time. After measuring the hemodynamic data, the arterial blood was extracted from the carotid artery of the pulmonary arterial hypertension rat, and the Abbott blood oximeter (i-STAT) combined with Abbott's special chip cartridge (i-STAT Cartridge G3+) was used to measure arterial gas analysis data such as pH, PaO2, PaCO2, HCO3 and base excess (BE) value in quantitative whole blood samples. The normal pH value is between 7.35 and 7.45, and the pH value indicates whether the experimental animal has the condition of acidemia, alkalemia, acidosis or alkalosis. The normal value of PaO2 is between 80 and 100 mmHg, which reflects the effectiveness of gas exchange (ventilation/perfusion). The normal value of PaCO2 is between 35 and 45 (such as 38 and 42) mmHg, which can evaluate the effectiveness of alveolar ventilation. The acid produced by food, tissue decomposition, inflammation and hypoxia rely on the lungs to excrete volatile acid CO2 (short-term) and the bicarbonate (HCO3^−) produced by the kidneys (long-term) to neutralize non-volatile acids, while the normal value of bicarbonate hydrogen radical (HCO3^−) is between 22 and 26 meq/L. BE is the base excess value, its normal value ranges from −2 to +2, the negative value represents the degree of alkali ion deficiency in the blood, a negative BE value (−) that is too high indicates metabolic acidosis, and a positive value (+) that is too high is metabolic alkalosis. At the end of the experiment, the rats were sacrificed and their hearts were removed and the left and right ventricles were separated and weighed (RV)/(S)+(LV).
Monocrotaline was utilized to induce pulmonary arterial hypertension rat animal model, intraperitoneal injection (IP) TGF-β receptor inhibitor 7-DHC (039) and oral administration of macitentan (soluble in methylcellulose), 7-DHC (039) was divided into two groups according to the dosage: 10 mg/kg or 20 mg/kg, and the dosage of macitentan group was 30 mg/kg.

The test system of data set [7] is human pulmonary artery smooth muscle cells (hPASMC). Briefly: BrdU cell proliferation assay, 10% FBS, hPASMC. The format is cell-based. As to conditions: Homo sapiens, read-out: EC50 (concentration for 50% of maximal effect). The protocol: as §1, §2, §3
The test system of data set [8] is TGF-β-stimulated PAI-1 promoter activity. Put plainly: TGF-β stimulated Pai-1 luciferase assay in MLECs-clone32 cells. Type of data set: cell-based. The note with it: TGF-β 50 pM, 4 hours, read-out: IC50 value of compound inhibiting TGF-β-stimulated Pai-1 luciferase activity (%). An excerpt:
TGF-β Stimulated Pai-1 Luciferase Assay
MLECs-clone32 cell line was used to measure the impact of different compounds on the downstream gene, plasminogenactivator inhibitor 1 (PAI-1) performance stimulated by TGF-β. MLECs-clone32 is an expression construct that is stably transfected for the Mv1Lu cell line, and the expression construct PAI-1 Luciferase contains a truncated (PAI-1) promoter fused to the firefly luciferase reporter gene^11,12. The activity stimulated by the truncated PAI-I promoter was quantified by using a luciferase assay. The luciferase activity stimulated by TGF-β in cells without compound treatment was set as 100%, and the effects of each compound on TGF-β-stimulated PAI-I promoter activity were compared. The steps for measuring Pai-1 luciferase activity include using a 96-well plate (DMEM medium containing 10% FBS), seeding each well with 1.5×10^5 cells, and culturing in an incubator overnight. After discarding the medium the next day, cells in DMEM medium with or without the addition of test compounds were treated with recombinant TGF-β (50 pM) and allowed to react in a 37° C. incubator for 4 hours. The cell culture medium was aspirated, washed with PBS, and the activity of Pai-1 luciferase was evaluated by luciferase assay.

The subject of data set [9] is normal rat pulmonary artery smooth muscle cells (rPASMC CON). Briefly: BrdU cell proliferation assay, 0.1% FBS, 100 pM TGF-β, rPASMC CON. Type of data set: cell-based. The note with it: Rattus norvegicus. As to the method:
as §1
as §2, with “with a final concentration of 5 ng/mL TGF-β and 1 times the concentration” left out
Five compounds to be tested were screened by cell survival assay (MTT assay) and BrdU (5-bromo-2-deoxyuridine) cell proliferation assay, and the information of these compounds was listed in Table 1 below.

Data set [10] has the same test system. Put plainly: BrdU cell proliferation assay, 10% FBS, rPASMC CON. Type of data set: cell-based. As to conditions: Rattus norvegicus, read-out: EC50 (concentration for 50% of maximal effect). As to the method: as §1, §2, §3
Data set [11] has as its system monocrotaline induced pulmonary hypertension rat. Briefly: Monocrotaline-induced pulmonary arterial hypertension rat model, Example 2 (7-DHC, 042). Type of data set: in vivo. As to conditions: 50 mg/kg IP.
From the text: as §4, §5, §6
Monocrotaline (MCT) was utilized to induce pulmonary hypertension rat animal model, the TGF-β receptor inhibitor 7-DHC (039) and compound No. 042 were tested via intraperitoneal (IP) administration, and the physiological parameters of the animals were collected, wherein includes measuring right ventricle pressure, systemic arterial pressure, heartbeat and right ventricle hypertrophy, as well as observing and analyzing the pulmonary artery thickening and blood oxygenation levels through pathological sections of lung tissue. Specifically, 7-DHC (039) was divided into two groups with a dosage of 10 mg/kg or 20 mg/kg, the dosage of group 042 was 50 mg/kg, each dosage group has 3 rats (n=3), while the control group (CON) and the pulmonary arterial hypertension rat group (MCT) had 6 rats (n=6) respectively.

[12] abbreviates: hPAEC, 100 pM TGF-β, 0.1% FBS, read-out: EC50.
Setting [13] is: MCT (PAH rPASMC), 100 pM TGF-β, 0.1% FBS, read-out: EC50.
Setting [14] is: hPASMC, 100 pM TGF-β, 0.1% FBS, read-out: EC50.
Where [15] appears, read: CON (normal rPASMC), 100 pM TGF-β, 0.1% FBS, read-out: EC50.

By IC50 is commonly meant the concentration that inhibits the measured activity by half. Take `CCCNS(=O)(=O)Nc1ncnc(OCCOc2ncc(Br)cn2)c1-c1ccc(Br)cc1` [Code 053, Macitentan]: the EC50 in data set [1] (setting [12]) was 40 µM; in [2], 175 µM; in [3] (setting [13]), 87 µM; in [4], 114 µM; in [5] (setting [14]), 59 µM; in [7] it was 100 µM. The EC50 in [9] (setting [15]) came to 96 µM; in data set [10], 142 µM. In addition, the “Blood vessel thickening, in words” value in data set [6] is “reduction in blood vessel thickening was also observed”. The “Survival rate compared with the 7-DHC (039) group, in words” value in [6] is “significantly worse”. In addition, the Animal survival status result in [6] (23rd day after monocrotaline induction) is reported as “died”. Further, the “Body weight and activity of the rats” value in [6] (second week of administration) is on record as “not greatly affected”. Also, the IC50 in [8] is 82.9 µM.

As for `O=c1cc(-c2ccccc2)oc2cc(O)c(O)c(O)c12` [Code 042, Baicalein], the “Right ventricle hypertrophy (RV/S+LV), in words” value in data set [11] (compared with MCT rats) was “slightly lower”. In data set [11] (second week of administration, sacrificed early on day 21), the “Weight and activity of the rats” value is recorded as “significantly decreased”. The EC50 turned out to be 15 µM in data set [1] (setting [12]); 20 µM in data set [2]; 9 µM in data set [3] (setting [13]); 4 µM in data set [5] (setting [14]); 5 µM in data set [7]; 52 µM in data set [9] (setting [15]). In data set [8], the IC50 came out at 14.8 µM.

For the compound `CC(C)CCC[C@@H](C)[C@H]1CC[C@H]2C34C=CC5(C[C@@H](OC(=O)CBr)CC[C@]5(C)[C@H]3CC[C@]12C)n1c(=O)n(C)c(=O)n14` (stereo partly shown) [Code 203, MeTC7], the IC50 in [8] was 17.5 µM.

For the compound `O=c1c(O)c(-c2ccc(O)c(O)c2)oc2cc(O)ccc12` [Code 050, Fisetin], the EC50 in data set [1] (setting [12]) was determined as 40 µM; in [2] (hPAEC, 10% FBS) it was 22 µM; in [3] (setting [13]), 79 µM; in data set [4] (MCT (PAH rPASMC), 10% FBS), 38 µM; in data set [5] (setting [14]), 35 µM; in data set [7] (hPASMC, 10% FBS), 27 µM. For the same compound, the EC50 in [9] (setting [15]) amounted to 106 µM; in data set [10] (CON (normal rPASMC), 10% FBS), 59 µM. Further, in [8], the IC50 was 44.1 µM.

In the case of `O=C(O)[C@H](O)Cc1ccc(O)c(O)c1` [Code 056, Danshensu], the EC50 in data set [1] turned out to be 155 µM; in data set [2], 272 µM; in [3] it was 36 µM; in [4], 25 µM; in data set [5], 100 µM; in [7], 124 µM. The EC50 in [9] worked out at 50 µM; in data set [10], 35 µM.
